Target: GLP-1R (Homo sapiens, UniProt P43220)
Assay: GLP-1R Activation - cAMP Assay
Assay type: cell-based
Details: each compound run on one of the two cAMP assays (Assay 1 or Assay 2, not specified)
In short: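 cAMP rise read by HTRF after 30 min agonist exposure (10-point titration, 37 °C) in HBSS/20 mM Hepes/0.1% BSA, following 1 h pre-incubation. Cells: stable GLP-1R CHO line, 1,000/well, seeded overnight. Sigmoidal fit of response vs log concentration gives EC50.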

[1] = cAMP increase in CHO cells stably expressing GLP-1R

Sequence of GLP-1R (P43220 24-463): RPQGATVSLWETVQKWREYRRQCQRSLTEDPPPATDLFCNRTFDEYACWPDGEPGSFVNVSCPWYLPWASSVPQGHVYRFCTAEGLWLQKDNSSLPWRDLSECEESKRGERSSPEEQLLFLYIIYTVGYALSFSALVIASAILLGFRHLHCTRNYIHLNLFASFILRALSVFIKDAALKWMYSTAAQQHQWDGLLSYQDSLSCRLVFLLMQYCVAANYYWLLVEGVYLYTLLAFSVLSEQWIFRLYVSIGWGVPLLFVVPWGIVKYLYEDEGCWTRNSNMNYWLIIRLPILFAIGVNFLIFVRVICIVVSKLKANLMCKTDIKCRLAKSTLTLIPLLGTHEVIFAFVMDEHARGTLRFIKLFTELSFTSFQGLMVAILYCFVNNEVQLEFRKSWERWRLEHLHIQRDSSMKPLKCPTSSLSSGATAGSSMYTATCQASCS

SMILES | EC50 [1] | EC50 ([…])
Cc1cc(Cc2nc3ccc(C(=O)O)cc3n2[C@@H]2COCC2(C)C)c(Cl)cc1-c1ccc(F)c(OCc2ccc(C#N)cc2)n1 [Example 135, (S)-2-(2-chloro-4-(6-((4-cyanobenzyl)oxy)-5-fluoropyridin-2-yl)-5-methylbenzyl)-1-(4,4-dimethyltetrahydrofuran-3-yl)-1H-benzo[d]imidazole-6-carboxylic Acid] | 0.361 nM | –
N#Cc1ccc(COc2cccc(-c3cc(F)c(Cc4nc5ccc(C(=O)O)cc5n4[C@H]4COC[C@H]4C4CC4)cc3F)n2)c(F)c1 [Example 192, 2-(4-(6-((4-cyano-2-fluorobenzyl)oxy)pyridin-2-yl)-2,5-difluorobenzyl)-1-((3R,4S)-4-cyclopropyltetrahydrofuran-3-yl)-1H-benzo[d]imidazole-6-carboxylic acid] | 0.444 nM | –
Cc1cc(Cc2nc3c(F)cc(C(=O)O)cc3n2[C@@H]2COCC2(C)C)c(F)cc1-c1ccc(F)c(OCc2ccc(C#N)cc2F)n1 [Example 207, (S)-2-(4-(6-((4-cyano-2-fluorobenzyl)oxy)-5-fluoropyridin-2-yl)-2-fluoro-5-methylbenzyl)-1-(4,4-dimethyltetrahydrofuran-3-yl)-4-fluoro-1H-benzo[d]imidazole-6-carboxylic acid] | 0.168 nM | –
N#Cc1ccc(COc2cccc(-c3cc(F)c(Cc4nc5ccc(C(=O)O)cc5n4[C@@H]4C[C@@H]5CC[C@H]4O5)cc3F)n2)c(F)c1 [Example 187, 1-((1R,2R,4S)-7-oxabicyclo[2.2.1]heptan-2-yl)-2-(4-(6-((4-cyano-2-fluorobenzyl)oxy)pyridin-2-yl)-2,5-difluorobenzyl)-1H-benzo[d]imidazole-6-carboxylic acid] | 0.391 nM | –
CC1(C)COC[C@H]1n1c(Cc2cc(F)c(-c3ccnc(OCc4ccc(Cl)cc4)n3)cc2F)nc2c(F)cc(C(=O)O)cc21 [Example 230, (S)-2-(4-(2-((4-chlorobenzyl)oxy)pyrimidin-4-yl)-2,5-difluorobenzyl)-1-(4,4-dimethyltetrahydrofuran-3-yl)-4-fluoro-1H-benzo[d]imidazole-6-carboxylic acid] | 0.034 nM | –
Cc1cc(Cc2nc3ccc(C(=O)O)cc3n2[C@@H]2COCC2(C)C)c(F)cc1-c1ccc(F)c(OCc2ccc(C#N)cc2F)n1 [Example 279, (S)-2-(4-(6-((4-cyano-2-fluorobenzyl)oxy)-5-fluoropyridin-2-yl)-2-fluoro-5-methylbenzyl)-1-(4,4-dimethyltetrahydrofuran-3-yl)-1H-benzo[d]imidazole-6-carboxylic acid] | 0.195 nM | –
CC1(C)COCC1n1c(Cc2cc(F)c(-c3cccc(OCc4cc(F)c(Cl)cc4F)n3)cc2F)nc2c(F)cc(C(=O)O)cc21 (centres unmarked) [Example 501, 2-(4-(6-((4-chloro-2,5-difluorobenzyl)oxy)pyridin-2-yl)-2,5-difluorobenzyl)-1-(4,4-dimethyltetrahydrofuran-3-yl)-4-fluoro-1H-benzo[d]imidazole-6-carboxylic acid] | 0.508 nM | –
CNC(=O)[C@@H]1COC[C@@H]1n1c(Cc2cc(F)c(-c3cccc(OCc4ccc(C#N)cc4F)n3)cc2F)nc2ccc(C(=O)O)cc21 (racemic) [Example 75, 2-(4-(6-((4-cyano-2-fluorobenzyl)oxy)pyridin-2-yl)-2,5-difluorobenzyl)-1-((3R,4S)-4-(methylcarbamoyl)tetrahydrofuran-3-yl)-1H-benzo[d]imidazole-6-carboxylic Acid] | 15.6 nM | –
CC1(C)COC[C@H]1n1c(Cc2cc(F)c(-c3cccc(OCc4ccc(C#N)cc4)n3)cc2F)nc2cnc(C(=O)O)cc21 [Example 421, (S)-2-(4-(6-((4-cyanobenzyl)oxy)pyridin-2-yl)-2,5-difluorobenzyl)-1-(4,4-dimethyltetrahydrofuran-3-yl)-1H-imidazo[4,5-c]pyridine-6-carboxylic acid] | 3.02 nM | –
COC(=O)N1C[C@H](OC)[C@H](n2c(Cc3cc(F)c(-c4cccc(OCc5ccc(C#N)cc5F)n4)cc3F)nc3ccc(C(=O)O)cc32)C1 [Example 85] | – | 1440 nM
CC1(C)COC[C@@H]1n1c(Cc2cc(F)c(-c3cccc(OCc4ccc(Cl)cc4)n3)cc2F)nc2ccc(C(=O)O)cc21 (single isomer, unassigned) [Example 385B] | 1.12 nM | –
COCCn1c(Cc2cc(F)c(-c3cccc(OCc4ccc(C(F)(F)F)nc4C)n3)cc2F)nc2ccc(C(=O)O)cc21 [Example 33, 2-(2,5-difluoro-4-(6-((2-methyl-6-(trifluoromethyl)pyridin-3-yl)methoxy)pyridin-2-yl)benzyl)-1-(2-methoxyethyl)-1H-benzo[d]imidazole-6-carboxylic Acid] | 2.58 nM | –
N#Cc1ccc(COc2cccc(-c3cc(F)c(Cc4nc5ccc(C(=O)O)cc5n4[C@H]4COC[C@@H]4C4CC4)cc3F)n2)c(F)c1 [Example 189, 2-(4-(6-((4-cyano-2-fluorobenzyl)oxy)pyridin-2-yl)-2,5-difluorobenzyl)-1-((3R,4R)-4-cyclopropyltetrahydrofuran-3-yl)-1H-benzo[d]imidazole-6-carboxylic acid] | 0.149 nM | –
N#Cc1ccc(COc2cccc(-c3cc(F)c(Cc4nc5ccc(C(=O)O)cc5n4[C@H]4CNC(=O)C4)cc3F)n2)c(F)c1 [Example 3, (R)-2-(4-(6-((4-cyano-2-fluorobenzyl)oxy)pyridin-2-yl)-2,5-difluorobenzyl)-1-(5-oxopyrrolidin-3-yl)-1H-benzo[d]imidazole-6-carboxylic acid] | – | 11.5 nM
CC1(C)COC[C@H]1n1c(Cc2cc(F)c(-c3cccc(OCc4ccc(Cl)cc4C(F)(F)F)n3)cc2F)nc2ccc(C(=O)O)cc21 [Example 469, (S)-2-(4-(6-((4-chloro-2-(trifluoromethyl)benzyl)oxy)pyridin-2-yl)-2,5-difluorobenzyl)-1-(4,4-dimethyltetrahydrofuran-3-yl)-1H-benzo[d]imidazole-6-carboxylic acid] | 1.6 nM | –
CO[C@]1(C)COC[C@@H]1n1c(Cc2cc(F)c(-c3cccc(OCc4ccc(C#N)cc4F)n3)cc2F)nc2ccc(C(=O)O)cc21 (single isomer, unassigned) [Example 311B, 2-[[4-[6-[(4-cyano-2-fluoro-phenyl)methoxy]-2-pyridyl]-2,5-difluoro-phenyl]methyl]-3-[4-methoxy-4-methyl-tetrahydrofuran-3-yl]benzimidazole-5-carboxylic Acid] | 0.159 nM | –
CC1(C)COC[C@H]1n1c(Cc2c(F)cc(-c3ccc(F)c(OCc4ccc(Cl)cc4F)n3)cc2F)nc2c(F)cc(C(=O)O)cc21 [Example 306, (S)-2-(4-(6-((4-chloro-2-fluorobenzyl)oxy)-5-fluoropyridin-2-yl)-2,6-difluorobenzyl)-1-(4,4-dimethyltetrahydrofuran-3-yl)-4-fluoro-1H-benzo[d]imidazole-6-carboxylic acid] | 0.123 nM | –
CC1(C)COC[C@H]1n1c(Cc2cc(F)c(-c3ccc(F)c(OCc4ccc(-n5ccnn5)cc4)n3)cc2F)nc2c(F)cc(C(=O)O)cc21 [Example 177, (S)-2-(4-(6-((4-(1H-1,2,3-triazol-1-yl)benzyl)oxy)-5-fluoropyridin-2-yl)-2,5-difluorobenzyl)-1-(4,4-dimethyltetrahydrofuran-3-yl)-4-fluoro-1H-benzo[d]imidazole-6-carboxylic Acid] | 0.021 nM | –
Cc1cc(Cc2nc3ccc(C(=O)O)cc3n2[C@@H]2COCC2(C)C)c(F)cc1-c1ccnc(OCc2ccc(Cl)cc2)n1 [Example 219, (S)-2-(4-(2-((4-chlorobenzyl)oxy)pyrimidin-4-yl)-2-fluoro-5-methylbenzyl)-1-(4,4-dimethyltetrahydrofuran-3-yl)-1H-benzo[d]imidazole-6-carboxylic acid] | 0.189 nM | –
COC(=O)N1Cc2ccc(COc3cccc(-c4cc(F)c(Cc5nc6c(F)cc(C(=O)O)cc6n5C[C@@H]5CCO5)cc4F)n3)cc2C1 [Example 349, 2-[[2,5-difluoro-4-[6-[(2-methoxycarbonylisoindolin-5-yl)methoxy]-2-pyridyl]phenyl]methyl]-7-fluoro-3-[[(2S)-oxetan-2-yl]methyl]benzimidazole-5-carboxylic acid] | 0.042 nM | –
COCCn1c(Cc2cc(F)c(-c3cccc(OCc4ccc(-c5cnn(CC(F)F)c5)cc4F)n3)cc2F)nc2ccc(C(=O)O)cc21 [Example 114] | 5.99 nM | –
CO[C@H]1COCC1n1c(Cc2cc(F)c(-c3cccc(OCc4ccc(C#N)cc4F)n3)cc2F)nc2c(F)cc(C(=O)O)cc21 (single isomer, unassigned) [Example 238] | 0.1 nM | –
CC1(C)COC[C@H]1n1c(Cc2cc(F)c(-c3cccc(OCc4ccc(Cl)cc4F)n3)cc2F)nc2c(F)cc(C(=O)O)cc21 [Example 201, (S)-2-(4-(6-((4-chloro-2-fluorobenzyl)oxy)pyridin-2-yl)-2,5-difluorobenzyl)-1-(4,4-dimethyltetrahydrofuran-3-yl)-4-fluoro-1H-benzo[d]imidazole-6-carboxylic acid] | 0.028 nM | –
COCCn1c(Cc2cc(F)c(-c3cccc(OCc4cnc(Cl)cc4OC)n3)cc2F)nc2c(F)cc(C(=O)O)cc21 [Example 291, 2-(4-(6-((6-chloro-4-methoxypyridin-3-yl)methoxy)pyridin-2-yl)-2,5-difluorobenzyl)-4-fluoro-1-(2-methoxyethyl)-1H-benzo[d]imidazole-6-carboxylic acid] | 0.076 nM | –
N#Cc1ccc(COc2cccc(-c3cc(F)c(Cc4nc5ccc(C(=O)O)cc5n4C4CCS(=O)(=O)C4)cc3F)n2)c(F)c1 (centres unmarked) [Example 81, 2-(4-(6-((4-cyano-2-fluorobenzyl)oxy)pyridin-2-yl)-2,5-difluorobenzyl)-1-(1,1-dioxidotetrahydrothiophen-3-yl)-1H-benzo[d]imidazole-6-carboxylic Acid] | 40.9 nM | –
COC[C@@H]1COC[C@@H]1n1c(Cc2cc(F)c(-c3cccc(OCc4ccc(C#N)cc4F)n3)cc2F)nc2ccc(C(=O)O)cc21 (single isomer, unassigned) [Example 176B] | 0.748 nM | –

Reference: patent US12570642B2, “GLP-IR modulating compounds” (Gilead Sciences, Inc., priority 2021, dated 2026)
